Measured values: US11306102B2, “1,3-di-substituted ketene compound and application thereof” (BEBETTER MED INC., priority 2017, dated 2022)

What was measured:
[1] = Pharmacokinetic (PK) experiments after intragastric administration in rats; type: in vivo, SD rats; conditions: for AUC(0-inf) / AUC(0-t) / Cmax / Tmax / half-life: male, SD, rat, plasma, po, intragastric administration 20 mg/kg; for half-life: read-out: Terminal T1/2 (converted)
Protocol: Male SD rats, weighing 250-300 grams, were fasted overnight before testing. The test compound was dissolved in 30% sulfobutyl-R-cyclodextrin (SBE-β-CD) and administered intragastrically at a dose of 20 mg/kg. Blood was collected 15 minutes, 30 minutes, and 1, 2, 3, 4, […] and 24 hours after the administration. About 0.3 ml of blood was collected at each time point, placed in a centrifuge tube containing K2-EDTA (dipotassium ethylenediamine tetraacetate) and centrifuged (2,000 g, 10 minutes, 4° C.) to take the plasma, which was stored in an ultra-low temperature refrigerator at −80° C. A 50 μL plasma sample was mixed with 5 μl of internal standard (IS) and extracted with ethyl acetate. The residue was redissolved in acetonitrile after drying under vacuum. The sample was filtered and injected into an LC-MS/MS for analysis.

PPARδ = molecular target: T1, PPARδ (Homo sapiens, UniProt Q03181); assay: Hela cell/luciferase reporter gene method, PPARδ agonist activity; type: cell-based; conditions: for EC50: Hela cells, pPPRE3-TK-Luciferase reporter, 24 hrs incubation, read-out: agonistic activity on PPARδ (EC50)
T1 construct: expressed in transfected cells; host or cells: Hela cells
T1 sequence (Q03181 1-441): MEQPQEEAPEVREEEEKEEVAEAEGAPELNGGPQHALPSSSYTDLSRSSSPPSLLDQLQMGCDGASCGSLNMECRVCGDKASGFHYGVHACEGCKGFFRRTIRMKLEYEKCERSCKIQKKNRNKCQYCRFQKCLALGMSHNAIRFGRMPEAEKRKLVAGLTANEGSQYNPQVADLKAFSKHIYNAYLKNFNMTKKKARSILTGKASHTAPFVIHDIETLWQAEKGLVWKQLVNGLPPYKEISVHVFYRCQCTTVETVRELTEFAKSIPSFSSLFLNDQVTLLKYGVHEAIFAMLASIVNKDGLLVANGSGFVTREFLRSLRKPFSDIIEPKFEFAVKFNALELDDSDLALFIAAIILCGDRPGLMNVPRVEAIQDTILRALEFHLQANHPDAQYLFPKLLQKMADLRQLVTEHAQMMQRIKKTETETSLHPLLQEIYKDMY
Protocol: This example measures the biological activity of a PPAR agonist using the Hela cell/luciferase reporter gene method.
The target plasmids PCMV PPARα (Ampicillin+), PCMV PPARγ (Ampicillin+), PCMV PPARδ (Ampicillin+), and pPPRE3-TK-Luciferase (Ampicillin+) were introduced into DH5a competent cells by heat shock treatment, respectively. After being incubated for 1 hour at 37° C. with shaking (180 rpm), the cells were inoculated on LB agar solid medium containing antibiotic Ampicillin, and invertedly cultured at 37° C. for 12-16 hours. Then the monoclonal colony cultured on the medium was taken and inoculated into LB liquid medium for expanded culture. […] The plasmid obtained by centrifugation was suspended in TE buffer, and the plasmid concentration was measured and the mixture was stored at −20° C. Hela cells in the exponential phase were seeded in 6-well plates (8-10^5 cells/well), and after 6-8 hours of culture, the cells were transfected using Lipofectamine® 3000 Transfection Reagent (Invitrogen; #L3000015). A plasmid containing a PPAR binding site (peroxisome proliferator response element, PPRE) and a firefly luciferase gene (pPPRE3-TK-Luciferase) and PPAR expression vector were co-transfected into a Hela cell with a total amount of plasmid DNA of 2.5 ug (the mass ratio of each PPAR expression vector is pPPRE:PPARα=6:1, pPPRE:PPARδ=8:1, and pPPRE:PPARγ=2:1) to construct a drug screening cell model for PPAR agonists. PPAR was binded to the ligand and then binded to the peroxisome proliferator response element (PPRE), thereby initiating downstream firefly luciferase expression and its expression intensity was directly proportional to the degree of PPAR activation. The cells after 24 hours transfection were prepared into a cell suspension with a cell concentration of […] by a complete culture solution, and seeded into a 96-well plate with 100 ul per well. After overnight culture, the medium was changed to a medium containing 1% FBS. 10 mM candidate compound stock (1000×) were 4-fold diluted in DMSO for 8 points, then supplemented with medium containing 1% FBS to a final concentration of 50 uM (5×) by addition of 25 μl of 5× compound diluent to each well in different concentration gradients and incubated under 37° C., 5% CO2 incubator for 24 hrs. The 96-well plate was taken out and 30 μl of Bright-Glo™ Luciferase Assay System (Promega #E2620) was added to each well. The Luciferase luminescence intensity was measured by a SynergyH1 full-function microplate detector. The obtained data was used to calculate EC50 using GraphPad Prism 5.0 software to determine the biological activity of the compound.

Row | SMILES | AUC(0-inf) [1] [ng·h/mL] | AUC(0-t) [1] [ng·h/mL] | Cmax [1] [ng/mL] | Tmax [1] [min] | half-life [1] [min] | absorption after oral administration compared with Elafibranor (in words) [1] | blood exposure after oral administration compared with Elafibranor (in words) [1] | half-life after oral administration compared with Elafibranor (in words) [1] | EC50 (PPARδ) [nM] | increased activity for activation of PPARδ compared with Elafibranor (PPARδ; compared with Elafibranor) [fold]
1 | CSc1ccc2cc(C(=O)/C=C/c3cc(C)c(OC(C)(C)C(=O)O)c(C)c3)sc2c1 [Compound 81, (E)-2-(2,6-dimethyl-4-(3-(6-(methylthio)benzo[b]thiophen-2-yl)-3-oxoprop-1-en-1-yl)phenoxy)-2-methylpropanoic acid] | 811 | 806 | 302 | 15 | 201 | good absorption | highly effective blood exposure | significantly prolonged half-life | 3640 | –
2 | CSc1ccc2c(C)c(C(=O)/C=C/c3cc(Cl)c(OC(C)(C)C(=O)O)c(Cl)c3)oc2c1 [Compound 103, (E)-2-(2,6-dichloro-4-(3-(3-methyl-6-(methylthio)benzofuran-2-yl)-3-oxoprop-1-en-1-yl)phenoxy)-2-methylpropanoic acid] | 50900 | 50400 | 5030 | 245 | 197 | good absorption | highly effective blood exposure | significantly prolonged half-life | 164 | –
3 | Cc1cc(/C=C/C(=O)c2ccc3c(c2)CCS3)cc(C)c1OC(C)(C)C(=O)O [Compound 36, (E)-2-(4-(3-(2,3-dihydrobenzo[b]thiophen-5-yl)-3-oxoprop-1-en-1-yl)-2,6-dimethylphenoxy)-2-methylpropanoic acid] | 3380 | 3340 | 2740 | 22.8 | 385 | good absorption | highly effective blood exposure | significantly prolonged half-life | 120 | –
4 | CCSc1ccc2c(C)c(C(=O)/C=C/c3cc(C)c(OC(C)(C)C(=O)O)c(C)c3)oc2c1 [Compound 74, (E)-2-(4-(3-(6-(ethylthio)-3-methylbenzofuran-2-yl)-3-oxoprop-1-en-1-yl)-2,6-dimethylphenoxy)-2-methylpropanoic acid] | – | – | – | – | – | – | – | – | 144 | –
5 | CCc1c(C(=O)/C=C/c2cc(C)c(OC(C)(C)C(=O)O)c(C)c2)oc2cc(SC)ccc12 [Compound 63, (E)-2-(4-(3-(3-ethyl-6-(methylthio)benzofuran-2-yl)-3-oxoprop-1-en-1-yl)-2,6-dimethylphenoxy)-2-methylpropanoic acid] | 1720 | 1700 | 812 | 15 | 258 | good absorption | highly effective blood exposure | significantly prolonged half-life | 205 | –
6 | CSc1cccc2oc(C(=O)/C=C/c3cc(C)c(OC(C)(C)C(=O)O)c(C)c3)cc12 [Compound 60, (E)-2-(2,6-dimethyl-4-(3-(4-(methylthio)benzofuran-2-yl)-3-oxoprop-1-en-1-yl)phenoxy)-2-methylpropanoic acid] | – | – | – | – | – | – | – | – | 614 | –
7 | CSc1ccc2c(C)c(C(=O)/C=C/c3cc(C)c(OC(C)(C)C(=O)O)c(C)c3)oc2c1 [Compound 62, (E)-2-(2,6-dimethyl-4-(3-(3-methyl-6-(methylthio)benzofuran-2-yl)-3-oxoprop-1-en-1-yl)phenoxy)-2-methylpropanoic acid] | 3150 | 3040 | 1830 | 15 | 532 | good absorption | highly effective blood exposure | significantly prolonged half-life | 210 | –
8 | CSc1ccc(C(=O)/C=C/c2cc(C)c(OC(C)(C)C(=O)O)c(C)c2)c2ccoc12 [Compound 27, (E)-2-(2,6-dimethyl-4-(3-(7-(methylthio)benzofuran-4-yl)-3-oxoprop-1-en-1-yl)phenoxy)-2-methylpropanoic acid] | – | – | – | – | – | – | – | – | 604 | –

Now from value to compound:

Row | AUC(0-inf) [1] [ng·h/mL] | AUC(0-t) [1] [ng·h/mL] | Cmax [1] [ng/mL] | Tmax [1] [min] | half-life [1] [min] | absorption after oral administration compared with Elafibranor (in words) [1] | blood exposure after oral administration compared with Elafibranor (in words) [1] | half-life after oral administration compared with Elafibranor (in words) [1] | EC50 (PPARδ) [nM] | increased activity for activation of PPARδ compared with Elafibranor (PPARδ; compared with Elafibranor) [fold] | SMILES
9 | 3240 | 3110 | 2850 | 15 | 739 | good absorption | highly effective blood exposure | significantly prolonged half-life | 36 | – | CSc1ccc(C(=O)/C=C/c2cc(C)c(OC(C)(C)C(=O)O)c(C)c2)c2occc12 [Compound 5, (E)-2-(2,6-dimethyl-4-(3-(4-(methylthio)benzofuran-7-yl)-3-oxoprop-1-en-1-yl)phenoxy)-2-methylpropanoic acid]
10 | 14000 | 13800 | 7730 | 15 | 265 | good absorption | highly effective blood exposure | significantly prolonged half-life | 87.1 | – | CSc1ccc2cc(C(=O)/C=C/c3cc(Cl)c(OC(C)(C)C(=O)O)c(Cl)c3)oc2c1 [Compound 100, (E)-2-(2,6-dichloro-4-(3-(6-(methylthio)benzofuran-2-yl)-3-oxoprop-1-en-1-yl)phenoxy)-2-methylpropanoic acid]
11 | – | – | – | – | – | – | – | – | 119 | – | CCSc1ccc(C(=O)/C=C/c2cc(C)c(OC(C)(C)C(=O)O)c(C)c2)c2occc12 [Compound 6, (E)-2-(4-(3-(4-(ethylthio)benzofuran-7-yl)-3-oxoprop-1-en-1-yl)-2,6-dimethylphenoxy)-2-methylpropanoic acid]
12 | 479 | 412 | 484 | 15 | 739 | good absorption | highly effective blood exposure | significantly prolonged half-life | 64.9 | 2 | CSc1ccc2cc(C(=O)/C=C/c3cc(C)c(OC(C)(C)C(=O)O)c(C)c3)oc2c1 [Compound 51, (E)-2-(2,6-dimethyl-4-(3-(6-(methylthio)benzofuran-2-yl)-3-oxoprop-1-en-1-yl)phenoxy)-2-methylpropanoic acid]
